{
  "source": "patent US20240279684A1",
  "about": "“CYTOSOLIC DELIVERY OF GENOME EDITING TOOLS” (SAPREME TECHNOLOGIES B.V., priority 2021, published 2024)",
  "key": {"[1]": {"system": "GFP-expressing Neuro-2A-GFP-cells", "test": "GFP-knockout via Cas9/gRNA(GFP) nanoplexes, FITC-H flow cytometry", "format": "cell-based, murine", "settings": "for cells not considered fluorescent: GE1741-co-application", "procedure": "FIG. 6A-E. GFP-Knockout of GFP-expressing Neuro-2A-GFP-cells via PDD (Cas9-DNA, gRNA (GFP)-DNA)-nanoplexes±saponin administration (co-transfection). GFP expressing Neuro-2A-cells were transfected via co-transfection of Cas9-DNA-plasmid and gRNA (GFP)-DNA-plasmid in a ratio of 4:0.5:0:5, with 500 ng of each DNA/well and 4.000 ng poly-lysine K16 peptide perwell. […] With saponin-Co-administration, the FITC-H was decreased by 10% (FIG. 6D) and the amount of cells not considered “fluorescent” compared to negative control, was increased by 7.5% (FIG. 6E).; n 3. FIG. 6A: FACS results with negative control; FIG. 6B: FACS results with PDD(Cas9-DNA, gRNA(GFP)-DNA), 4:1; FIG. 6C: FACS results of PDD(Cas9-DNA, gRNA(GFP)-DNA), 4:1+GE1741; FIG. 6D: values for the median FITC-H for the test samples of FIG. 6A-C and the control Lipofectamine3000DD(Cas9-DNA); FIG. 6E: amount of non-fluorescent cells in the test samples of FIGS. 6A-C and the control Lipofectamine3000DD(Cas9-DNA).\nFIG. 7A-E. GFP-Knockout of GFP-expressing Neuro-2A-cells via PD (Cas9-gRNA (GFP)-DNA)-nanoplexes±saponin administration (All-in-one-transfection). GFP expressing Neuro-2A-cells were transfected via “All-in-one”-transfection of a Cas9-gRNA (GFP)-DNA-plasmid in a ratio of 4:1, 500 ng of each DNA/well. […] FIG. 7A: FACS results with negative control; FIG. 7B: FACS results with PD(Cas9-gRNA(GFP)-DNA, 4:1; FIG. 7C: FACS results of PD(Cas9-gRNA(GFP)-DNA, 4:1+GE1741; FIG. 7D: values for the median FITC-H for the test samples of FIG. 7A-C and for PD(Cas9-gRNA(GFP)-DNA, 8:1 and PD(Cas9-gRNA(GFP)-DNA, 8:1+GE1741; FIG. 7E: amount of non-fluorescent cells in the test samples of FIG. 7A-C and for PD(Cas9-gRNA(GFP)-DNA, 8:1 and PD(Cas9-gRNA(GFP)-DNA, 8:1+GE1741.\nAfter the successful delivery of Cas9-DNA with GFP-driven fluorescence has been established, the inventors next tested the functionality of Cas9-transfections. GFP-expressing Neuro-2A-GFP-cells were therefore acquired. The aim of the test was to show and visualize the knock-out of the GFP-gene with a CRISPR-Cas9-gene knock-out. Therefore, Cas9-DNA (i.e. a plasmid DNA) was, either co-transfected with a gRNA-DNA-plasmid (PDD), or delivered in one plasmid DNA (“All-In-One-Plasmid”) coding for Cas9 and gRNA (PD) and expressing both Cas9 and guide RNA (FIG. 8, FIG. 9). The effect of GE1741-co-application during transfection of the cells was investigated via decrease of fluorescence intensity (FITC-H median & separation of the dot plot in FITC-H & FSC related quarters). […] To improve gene knock-out efficiency, a number of different gRNA-sequences was tested, in order to select the most efficient target sequence for the gRNA. The initially and further applied gRNA-sequences were obtained through a database with efficiency information. For selection of an optimal gRNA sequence, the GFP-gene sequence of the transfected cell line has to be known as many GFP-sequences are available. Further, the gene knock-out requires a sensitive assay, by which minimal changes can be detected. Within promotor-driven highly fluorescing cells, single gene knock-out possibly could not be identified."}, "Neuro-2A-cells": {"system": "Neuro-2A-cells", "test": "Confluence measurements during PD-transfections (Cytosmart live-cell imager)", "format": "cell-based, murine", "settings": "Cas9-GFP- and GFP-DNA-transfections ± saponin, up to 95 h, vs untreated negative control", "procedure": "FIG. 5A-F. Confluence measurements of Neuro-2A-cells during PD (Cas9-GFP)-transfections ±saponin-administration. A visual monitoring of confluence was conducted during the Cas9-GFP-transfections (FIGS. 5A, E, F) and GFP-DNA-transfections (FIGS. 5A, C, D) of Neuro-2A-cells. The display of confluence during the incubation time was provided by algorithms of the Cytosmart. […] Saponin GE1741 was absent (FIGS. 5A, C, E) or present (FIGS. 5A, D, F) during the confluency assessment over time. FIG. 5B-F show the Neuro-2A cell-confluency after an incubation time of 95 h.\nIn the course of the transfection process of Neuro-2A-cells (seeding, transfection, incubation), the cells were fully imaged and analyzed for confluence by a live-cell imager (Cytosmart Omni). Via cloud-based algorithms, which processed the visual images, the Cytosmart provided a valuable measure of viability in terms of confluence."}},
  "data": [
    {"smiles": "CC(=O)OC1C(C)OC(OC2C(C)OC(OC(=O)C34CCC(C)(C)CC3C3=CCC5C6(C)CCC(OC7OC(C(=O)O)C(O)C(OC8OCC(O)C(O)C8O)C7OC7OC(CO)C(O)C(O)C7O)C(C)(C=O)C6CCC5(C)C3(C)CC4O)C(OC3OC(C)C(OC4OCC(O)C(OC5OCC(O)C(O)C5O)C4O)C(O)C3O)C2O)C(O)C1OC(C)=O", "note": "(centres unmarked) [GE1741]", "values": [
      {"measurement": "cells successfully transfected with Cas9-DNA", "setting": "[1]", "result": 30, "unit": "%"},
      {"measurement": "cells not considered fluorescent", "setting": "[1]; All-In-One-Plasmid (PD)", "result": 11, "unit": "%"},
      {"measurement": "FITC-H median change (in words)", "setting": "[1]; All-in-one PD (Cas9-gRNA(GFP)-DNA)", "result": "No FITC-H could be observed"},
      {"measurement": "amount of cells considered fluorescent, elevated by", "setting": "[1]; All-in-one PD (Cas9-gRNA(GFP)-DNA), PD mass ratio 8:1", "result": 11, "unit": "%"},
      {"measurement": "decrease of FITC-H median", "setting": "[1]; co-transfection PDD (Cas9-DNA, gRNA(GFP)-DNA) 4:0.5:0.5, with saponin", "result": 10, "unit": "%"},
      {"measurement": "increase of cells not considered fluorescent compared to negative control", "setting": "[1]; co-transfection PDD (Cas9-DNA, gRNA(GFP)-DNA), with saponin", "result": 7.5, "unit": "%"},
      {"measurement": "cells not considered fluorescent", "setting": "[1]; co-transfection with gRNA-DNA-plasmid (PDD)", "result": 10, "unit": "%"},
      {"measurement": "toxic effects by confluence", "setting": "Neuro-2A-cells", "result": "No distinct toxic effects"}
    ]}
  ]
}
